How the values were obtained:
EGFR = biological target: T1, EGFR (Homo sapiens, UniProt P00533); assay: EGFR ELISA assay (in vitro kinase activity, EGFR captured from A431 cell lysate); assay type: biochemical; design: concentration or dose not given beside the values
T1 construct: Add 7 ug A431 cell lysate per well (EGFR source); endogenous in cells; host or cells: A431
Description: To provide a consistent method for measuring the in vitro kinase activity of the EGFR in an Enzyme-linked immunosorbent assay (Elisa).
Scope. The following protocol describes the procedures used to analyze protein tyrosine kinase activity on the EGFR in an Elisa. The procedure also describes the protocol for the initial screening of drugs for inhibition or activation of protein tyrosine kinase activity.
Reagents and Supplies. • 1. […] 05-101 monoclonal anti-EGFR antibody (commercially available from UB1) -80° C, 1 ml aliquots • 3. […] TBST Buffer Formulation: 50 mM Tris pH 7.2 150 mM NaCl 0.1% Triton X-100 • 5. Blocking Buffer Formulation: 5% Carnation Instant Milk in PBS • 6. A431 cell lysate A431 cells are available from a variety of commercial sources and may be used lysed using conventional methods known to those skilled in the art or as described for lysis of the 3T3 cells in the EGF cellular assay described herein. -80° C, 1 ml aliquots • 7. TBS Buffer Formulation: 50 mM Tris pH 7.2 150 mM NaCl • 8. […] NUNC 96-well V bottom polypropylene plates Applied Scientific Catalog # AS-72092 • 11. EDTA Formulation: 200 mM EDTA pH 8.0 • 12. […] Goat anti-rabbit IgG peroxidase conjugate Biosource Catalog # ALI0404 • 14. ABTS Solution Formulation: 100 mM Citric Acid (anhydrous) 250 mM Na2HPO4 pH 4.0 0.5 mg/ml ABTS (2,2'-azino-bis(3-ethylbenzthiazoline-6-sulfonic acid) (Sigma Catalog # A-1888) Keep solution in dark at 4 C until ready to use • 15. Hydrogen peroxide 30% solution Fisher Catalog # H325 Store in the dark at 4 C until ready to use • 16. ABTS/H2O2 Formulation: 15 mls ABTS solution 2 ul H2O2 Prepare 5 minutes before use and room temperature • 17. 0.2 M HCL stock in H2O Procedure. • 1. Coat Corning 96-well elisa plates with 0.5 ug per well 05-101 antibody. Bring final volume to 100 ul per well with PBS. Coat plates overnight at 4° C. • 2. Remove unbound 05-101 from wells by inverting plate to remove liquid. Wash 1x with distilled H2O by filling wells Pat the plate on a paper towel to remove excess liquid. • 3. Block plates with 5% milk in PBS. 150 ul per well. Incubate plate 30 minutes while shaking on a microtiter plate shaker. • 4. Wash plate 3x with dionized water, then once with TBST • 5. Add 7 ug A431 cell lysate per well (EGFR source). Add PBS to final volume of 100 ul per well Incubate 30 minutes while shaking. • 6. Wash as described in step 4. • 7. At this point, drugs or extracts are added to the wells. Dilute drugs/extracts 1:100 (unless specified otherwise) in TBS + 10% DMSO in 96-well polypropylene plates. Add 120 ul TBS to ELISA plate containing captured EGFR. Add 13.5 ul diluted drugs/extracts to ELISA plate. […] Incubate plate 30 minutes while shaking. • 8. […] (150 ul final volume in well with 3 uM ATP/5 mM MnCl2 final concentration in well.) Incubate 5 minutes while shaking vigorously. *NOTE: It is critical that ATP/MnCl2 phosphorylates the receptor for 5 minutes only. It is best to add the ATP/MnCl2 with an 12 channel pipettor 1 row at a time leaving 20 seconds between each row so that the reaction may be stopped with EDTA exactly 5 minutes later (this depends on the number of plates being phosphorylated in one batch). Shake between each addition. • 9. After 5 minutes, to stop reaction, add 16.5 ul of 200 mM EDTA pH 8.0 for 20 mM final in well, shaking continuously between each addition. This is done using the same timing method as above. After last row has received EDTA, shake plate an additional minute. • 10. Wash 4x with deionized water, twice with TBST. • 11. Add rabbit polyclonal anti-phosphotyrosine serum. Dilute 1:3000 in TBST. Add 100 ul per well. Incubate 30-45 minutes while shaking. • 12. Wash as described above in step 4. • 13. Add BioSource anti-rabbit peroxidase conjugate antibody. Dilute 1:2000 in TBST. Add 100 ul per well. Incubate 30 minutes while shaking. • 14. Wash as described in step 4. • 15. Add 100 ul of ABTS/H2O2 solution to well. Incubate 5 to 10 minutes while shaking. Remove bubbles • 16. […]

PDGF-R = PDGF-R (Homo sapiens, UniProt P09619); assay: PDGF-R ELISA; assay type: cell-based
Description: A PDGF-R ELISA is described in International Patent Publication No. WO 96/40116, published December 19, 1996 by Tang et al.

Chain of PDGF-R (P09619 33-1106, species assumed): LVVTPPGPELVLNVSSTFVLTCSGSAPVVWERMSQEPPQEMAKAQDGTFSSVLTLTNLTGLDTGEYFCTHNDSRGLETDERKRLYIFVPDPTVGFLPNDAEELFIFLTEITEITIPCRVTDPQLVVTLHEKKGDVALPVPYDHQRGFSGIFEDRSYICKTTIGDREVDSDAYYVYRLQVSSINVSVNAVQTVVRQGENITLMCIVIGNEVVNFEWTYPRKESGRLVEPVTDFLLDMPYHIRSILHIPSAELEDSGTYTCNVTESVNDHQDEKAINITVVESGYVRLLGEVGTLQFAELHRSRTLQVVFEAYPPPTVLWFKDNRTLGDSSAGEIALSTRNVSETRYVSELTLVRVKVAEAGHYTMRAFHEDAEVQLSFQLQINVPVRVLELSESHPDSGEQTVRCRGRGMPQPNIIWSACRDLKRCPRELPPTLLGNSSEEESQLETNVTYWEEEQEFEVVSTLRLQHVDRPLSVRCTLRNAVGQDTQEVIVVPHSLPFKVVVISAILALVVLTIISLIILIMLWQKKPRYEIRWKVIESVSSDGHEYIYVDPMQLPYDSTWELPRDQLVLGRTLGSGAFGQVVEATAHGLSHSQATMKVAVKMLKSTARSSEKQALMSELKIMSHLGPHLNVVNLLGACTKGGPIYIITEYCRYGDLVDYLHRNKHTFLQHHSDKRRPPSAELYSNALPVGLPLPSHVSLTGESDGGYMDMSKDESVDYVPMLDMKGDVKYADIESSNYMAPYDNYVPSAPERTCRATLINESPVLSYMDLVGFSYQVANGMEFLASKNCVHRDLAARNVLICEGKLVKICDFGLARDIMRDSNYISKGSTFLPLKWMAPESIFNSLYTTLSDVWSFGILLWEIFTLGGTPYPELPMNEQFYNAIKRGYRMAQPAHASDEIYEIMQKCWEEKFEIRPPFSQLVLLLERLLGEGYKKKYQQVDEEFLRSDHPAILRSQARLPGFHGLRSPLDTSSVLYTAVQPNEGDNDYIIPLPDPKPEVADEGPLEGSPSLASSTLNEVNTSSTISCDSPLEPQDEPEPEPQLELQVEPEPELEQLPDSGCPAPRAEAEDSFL
T1 sequence (P00533 25-1210): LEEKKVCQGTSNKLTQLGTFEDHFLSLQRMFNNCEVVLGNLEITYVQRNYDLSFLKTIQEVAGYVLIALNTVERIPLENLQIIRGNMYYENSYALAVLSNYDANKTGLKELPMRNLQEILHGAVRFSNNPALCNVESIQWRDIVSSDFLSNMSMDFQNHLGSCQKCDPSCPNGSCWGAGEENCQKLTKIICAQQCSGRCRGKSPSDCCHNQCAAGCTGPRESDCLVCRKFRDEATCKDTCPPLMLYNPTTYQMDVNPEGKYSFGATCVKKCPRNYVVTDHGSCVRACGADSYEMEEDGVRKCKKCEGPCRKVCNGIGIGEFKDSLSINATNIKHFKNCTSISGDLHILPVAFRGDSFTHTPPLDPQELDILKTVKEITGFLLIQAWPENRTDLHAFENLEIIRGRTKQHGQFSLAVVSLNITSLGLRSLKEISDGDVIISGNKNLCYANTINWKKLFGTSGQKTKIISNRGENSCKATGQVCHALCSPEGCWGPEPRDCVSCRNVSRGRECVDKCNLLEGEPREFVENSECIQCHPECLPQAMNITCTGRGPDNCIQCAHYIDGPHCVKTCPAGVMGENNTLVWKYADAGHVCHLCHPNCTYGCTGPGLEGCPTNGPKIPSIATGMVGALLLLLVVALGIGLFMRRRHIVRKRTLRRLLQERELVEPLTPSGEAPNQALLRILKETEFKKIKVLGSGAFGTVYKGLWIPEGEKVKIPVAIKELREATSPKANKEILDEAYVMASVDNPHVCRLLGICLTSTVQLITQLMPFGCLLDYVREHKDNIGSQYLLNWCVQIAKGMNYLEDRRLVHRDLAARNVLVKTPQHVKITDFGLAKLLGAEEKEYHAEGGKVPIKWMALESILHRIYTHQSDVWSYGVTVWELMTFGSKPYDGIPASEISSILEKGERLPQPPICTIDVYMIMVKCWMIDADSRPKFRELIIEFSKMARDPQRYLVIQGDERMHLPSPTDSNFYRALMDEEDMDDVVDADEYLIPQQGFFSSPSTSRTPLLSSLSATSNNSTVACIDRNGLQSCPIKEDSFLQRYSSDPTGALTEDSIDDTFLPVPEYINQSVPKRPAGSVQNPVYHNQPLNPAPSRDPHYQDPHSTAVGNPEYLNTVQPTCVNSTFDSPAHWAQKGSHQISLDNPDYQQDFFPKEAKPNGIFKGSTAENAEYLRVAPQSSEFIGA

SMILES | Biochem EGFR %Inhibition (EGFR) | PDGF Kinase %Inhibition (PDGF-R)
Cc1c(Br)ccc2c1C(=Cc1ccco1)C(=O)N2 [10718/C10] | -18.7% | 
Cc1c(Br)ccc2c1C(=Cc1ccc([N+](=O)[O-])o1)C(=O)N2 [10718/C11] | -0.2% | 
CCOC(=O)c1c(C)[nH]c(C=C2C(=O)Nc3ccc(S(=O)(=O)NC)cc32)c1C [10718/D02] | 14.4% | 
CNS(=O)(=O)c1ccc2c(c1)C(=Cc1cc(OC)cc(Br)c1O)C(=O)N2 [10718/D03] | 61.9% | 
CNS(=O)(=O)c1ccc2c(c1)C(=Cc1ccc3ccccc3c1O)C(=O)N2 [10718/D04] | 52.0% | 
CCOC(=O)CCc1c(C(=O)OCC)[nH]c(C=C2C(=O)Nc3ccc(S(=O)(=O)NC)cc32)c1CC(=O)OCC [10718/D05] | 2.8% | 
CCOC(=O)c1cc(C=C2C(=O)Nc3ccc(S(=O)(=O)NC)cc32)oc1C [10718/D06] | 20.0% | 
C=C(C)C1CC=C(C=C2C(=O)Nc3ccc(S(=O)(=O)NC)cc32)CC1 (stereo not drawn) [10731/D04] | 15.8% | 6.5%
CNS(=O)(=O)c1ccc2c(c1)C(=Cc1coc3ccc(C(C)C)cc3c1=O)C(=O)N2 [10731/D05] | 53.9% | 46.0%
CNS(=O)(=O)c1ccc2c(c1)C(=Cc1coc3ccc(C)cc3c1=O)C(=O)N2 [10731/D06] | 23.2% | 8.0%
CNS(=O)(=O)c1ccc2c(c1)C(=Cc1coc3ccc([N+](=O)[O-])cc3c1=O)C(=O)N2 [10731/D07] | 25.9% | 2.7%
CNS(=O)(=O)c1ccc2c(c1)C(=Cc1c[nH]c(=O)[nH]c1=O)C(=O)N2 [10731/D08] | 16.8% | -8.7%
CNS(=O)(=O)c1ccc2c(c1)C(=Cc1c[nH]c3ccc(OC)cc13)C(=O)N2 [10731/D09] | 12.6% | -2.0%
CNS(=O)(=O)c1ccc2c(c1)C(=C1C(=O)N(C)c3ccccc31)C(=O)N2 [10731/D10] | 15.8% | 9.9%
CCn1c2ccccc2c2cc(C=C3C(=O)Nc4ccc(S(=O)(=O)Nc5ccc(C(F)(F)F)cc5)cc43)ccc21 [10731/E02] | 7.9% | 13.7%
Cc1cc2occ(C=C3C(=O)Nc4ccc(S(=O)(=O)Nc5ccc(C(F)(F)F)cc5)cc43)c(=O)c2cc1C [10731/E03] | 10.4% | 15.6%
C=C(C)C1CC=C(C=C2C(=O)Nc3ccc(S(=O)(=O)Nc4ccc(C(F)(F)F)cc4)cc32)CC1 (stereo not drawn) [10731/E04] | 13.6% | 30.8%
CC(C)c1ccc2occ(C=C3C(=O)Nc4ccc(S(=O)(=O)Nc5ccc(C(F)(F)F)cc5)cc43)c(=O)c2c1 [10731/E05] | 17.7% | 27.0%
Cc1ccc2occ(C=C3C(=O)Nc4ccc(S(=O)(=O)Nc5ccc(C(F)(F)F)cc5)cc43)c(=O)c2c1 [10731/E06] | 10.4% | -12.0%
O=C1Nc2ccc(S(=O)(=O)Nc3ccc(C(F)(F)F)cc3)cc2C1=Cc1coc2ccc([N+](=O)[O-])cc2c1=O [10731/E07] | 38.4% | 3.7%
O=C1Nc2ccc(S(=O)(=O)Nc3ccc(C(F)(F)F)cc3)cc2C1=Cc1c[nH]c(=O)[nH]c1=O [10731/E08] | 40.1% | 8.9%

SMILES | Biochem EGFR %Inhibition (EGFR) | PDGF Kinase %Inhibition (PDGF-R)
COc1ccc2[nH]cc(C=C3C(=O)Nc4ccc(S(=O)(=O)Nc5ccc(C(F)(F)F)cc5)cc43)c2c1 [10731/E09] | 17.2% | 23.2%
CN1C(=O)C(=C2C(=O)Nc3ccc(S(=O)(=O)Nc4ccc(C(F)(F)F)cc4)cc32)c2ccccc21 [10731/E10] | 25.1% | 21.7%
CCn1c2ccccc2c2cc(C=C3C(=O)Nc4ccc(S(=O)(=O)N5CCOCC5)cc43)ccc21 [10731/F02] | 17.7% | 14.1%
Cc1cc2occ(C=C3C(=O)Nc4ccc(S(=O)(=O)N5CCOCC5)cc43)c(=O)c2cc1C [10731/F03] | 8.4% | 11.8%
C=C(C)C1CC=C(C=C2C(=O)Nc3ccc(S(=O)(=O)N4CCOCC4)cc32)CC1 (stereo not drawn) [10731/F04] | 5.0% | 3.2%
CC(C)c1ccc2occ(C=C3C(=O)Nc4ccc(S(=O)(=O)N5CCOCC5)cc43)c(=O)c2c1 [10731/F05] | 19.5% | 20.3%
Cc1ccc2occ(C=C3C(=O)Nc4ccc(S(=O)(=O)N5CCOCC5)cc43)c(=O)c2c1 [10731/F06] | 7.2% | -23.4%
O=C1Nc2ccc(S(=O)(=O)N3CCOCC3)cc2C1=Cc1coc2ccc([N+](=O)[O-])cc2c1=O [10731/F07] | 37.7% | 1.3%
O=C1Nc2ccc(S(=O)(=O)N3CCOCC3)cc2C1=Cc1c[nH]c(=O)[nH]c1=O [10731/F08] | 7.1% | 4.1%
COc1ccc2[nH]cc(C=C3C(=O)Nc4ccc(S(=O)(=O)N5CCOCC5)cc43)c2c1 [10731/F09] | -0.7% | 15.6%
CN1C(=O)C(=C2C(=O)Nc3ccc(S(=O)(=O)N4CCOCC4)cc32)c2ccccc21 [10731/F10] | 7.9% | 28.4%
CCn1c2ccccc2c2cc(C=C3C(=O)Nc4ccc(CCCl)cc43)ccc21 [10731/G02] | 4.7% | -10.1%
Cc1cc2occ(C=C3C(=O)Nc4ccc(CCCl)cc43)c(=O)c2cc1C [10731/G03] | 7.7% | 6.5%
C=C(C)C1CC=C(C=C2C(=O)Nc3ccc(CCCl)cc32)CC1 (stereo not drawn) [10731/G04] | 7.1% | 0.3%
CC(C)c1ccc2occ(C=C3C(=O)Nc4ccc(CCCl)cc43)c(=O)c2c1 [10731/G05] | 18.5% | 8.0%
Cc1ccc2occ(C=C3C(=O)Nc4ccc(CCCl)cc43)c(=O)c2c1 [10731/G06] | 2.3% | -0.6%
O=C1Nc2ccc(CCCl)cc2C1=Cc1coc2ccc([N+](=O)[O-])cc2c1=O [10731/G07] | 0.7% | 40.8%
O=C1Nc2ccc(CCCl)cc2C1=Cc1c[nH]c(=O)[nH]c1=O [10731/G08] | 13.3% | -13.9%
COc1ccc2[nH]cc(C=C3C(=O)Nc4ccc(CCCl)cc43)c2c1 [10731/G09] | 8.9% | -8.7%
CN1C(=O)C(=C2C(=O)Nc3ccc(CCCl)cc32)c2ccccc21 [10731/G10] | 5.5% | 5.6%

From patent EP1247803A2, “Indolinone compounds suitable for modulation of protein kinases” (Sugen, Inc., priority 1996, dated 1998)
